Peptide text beside a SMILES is read from it.
Each compound was assayed on 3T3-L1 Adipocytes (assay: Free fatty acid levels in cultured mouse 3T3-L1 adipocytes, isoproterenol stimulated (Example 2)). Settings: test peptides 25 μM; isoproterenol 1 nM.
Type: cell-based
How it was run: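 Release of free fatty acids, read at 540 nm, was stimulated with 1 nM isoproterenol for 3 h in mouse 3T3-L1 adipocytes (12–17 days of differentiation). Cells were pre-exposed to 25 μM peptide for 18–20 h plus 1 h, with peptide kept in during stimulation. Values are background-subtracted and normalised to isoproterenol alone.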

First: CC[C@H](C)[C@H](NC(=O)[C@H](Cc1ccc(O)cc1)NC(=O)CNC(=O)[C@H](C)NC(=O)[C@H](CCC(=O)O)NC(=O)[C@H](CCC(N)=O)NC(=O)[C@H](Cc1c[nH]c2ccccc12)NC(=O)[C@H](CCCNC(=N)N)NC(=O)[C@@H](C)N)C(=O)N[C@@H](Cc1ccccc1)C(=O)N[C@@H](CCC(=O)O)C(=O)N1CCC[C@H]1C(=O)N[C@@H](CCCNC(=N)N)C(=O)O [compound 244] (HELM PEPTIDE1{[dA].R.W.Q.E.A.G.Y.I.F.E.P.R}$$$$V2.0)
Second: CC[C@H](C)[C@H](NC(=O)[C@H](Cc1ccc(O)cc1)NC(=O)CNC(=O)[C@H](C)NC(=O)[C@H](CCC(=O)O)NC(=O)[C@H](CCC(N)=O)NC(=O)[C@H](Cc1c[nH]c2ccccc12)NC(=O)[C@H](CCCNC(=N)N)NC(=O)[C@@H](C)N)C(=O)N[C@@H](Cc1ccccc1)C(=O)N[C@@H](CCC(=O)O)C(=O)N1CCC[C@H]1C(=O)N[C@@H](CCCNC(=N)N)C(=O)N[C@@H](CCCCN)C(=O)N[C@@H](CC(C)C)C(=O)N[C@@H](C)C(=O)O [compound 242] (HELM PEPTIDE1{[dA].R.W.Q.E.A.G.Y.I.F.E.P.R.K.L.A}$$$$V2.0)
The “Free Fatty Acid Levels in 3T3-L1 Adipocytes Expressed as a Percent of Isoproterenol Control: Percent of Control Value” of the first is higher: 90.3% for the first, 64.9% for the second.

Going from `CSCC[C@H](NC(C)=O)C(=O)N[C@@H](CCCNC(=N)N)C(=O)N[C@@H](Cc1c[nH]c2ccccc12)C(=O)N[C@@H](CCC(N)=O)C(=O)N[C@@H](CCC(=O)O)C(=O)N[C@@H](CCSC)C(=O)NCC(=O)N[C@@H](Cc1ccc(O)cc1)C(=O)N[C@H](C)C(=O)N[C@@H](Cc1ccccc1)C(=O)N[C@@H](Cc1ccc(O)cc1)C(=O)N1CCC[C@H]1C(=O)N[C@@H](CCCNC(=N)N)C(=O)N[C@@H](CCCCN)C(=O)N[C@@H](CC(C)C)C(=O)N[C@@H](CCCNC(=N)N)C(N)=O` [compound 160] (HELM PEPTIDE1{[ac].M.R.W.Q.E.M.G.Y.[dA].F.Y.P.R.K.L.R.[am]}$$$$V2.0) to Ac-MRWNEMGYIFYPRKLR-NH2 [compound 133], the “Free Fatty Acid Levels in 3T3-L1 Adipocytes Expressed as a Percent of Isoproterenol Control: Percent of Control Value” rises from 87.1% to 87.5%.

Going from Ac-MRWQEMGYIFYPRKLK-NH2 [compound 130] to Ac-MKWQEMGYIFYPRKLR-NH2 [compound 128], the “Free Fatty Acid Levels in 3T3-L1 Adipocytes Expressed as a Percent of Isoproterenol Control: Percent of Control Value” rises from 85.4% to 90.0%.

First: CC[C@H](C)[C@H](NC(=O)[C@H](Cc1ccc(O)cc1)NC(=O)CNC(=O)[C@H](CCC(=O)O)NC(=O)[C@H](CCC(=O)O)NC(=O)[C@H](CCC(N)=O)NC(=O)[C@H](Cc1c[nH]c2ccccc12)NC(=O)[C@H](CCCNC(=N)N)NC(=O)[C@@H](C)N)C(=O)N[C@@H](C)C(=O)N[C@@H](Cc1ccc(O)cc1)C(=O)N1CCC[C@H]1C(=O)N[C@@H](CCCNC(=N)N)C(=O)N[C@@H](CCCCN)C(=O)N[C@@H](CC(C)C)C(=O)N[C@H](C)C(=O)O [compound 237] (HELM PEPTIDE1{[dA].R.W.Q.E.E.G.Y.I.A.Y.P.R.K.L.[dA]}$$$$V2.0)
Second: H-MRWQEMGYIFYPRKLK-OH [compound 124]
The “Free Fatty Acid Levels in 3T3-L1 Adipocytes Expressed as a Percent of Isoproterenol Control: Percent of Control Value” of the first is higher: 85.6% for the first, 68.9% for the second.

Compared with `CC[C@H](C)[C@H](NC(=O)[C@H](Cc1ccc(O)cc1)NC(=O)CNC(=O)[C@H](CCSC)NC(=O)[C@H](CCC(=O)O)NC(=O)[C@H](CCC(N)=O)NC(=O)[C@H](Cc1c[nH]c2ccccc12)NC(=O)[C@H](CCCNC(=N)N)NC(=O)[C@H](CCSC)NC(C)=O)C(=O)N[C@@H](Cc1ccccc1)C(=O)N[C@@H](Cc1ccc(O)cc1)C(=O)N1CCC[C@H]1C(=O)N[C@@H](CCCNC(=N)N)C(=O)N[C@@H](CCCCN)C(=O)NC(CC)(CC)C(=O)N[C@@H](CCCNC(=N)N)C(N)=O` [compound 201] (HELM PEPTIDE1{[ac].M.R.W.Q.E.M.G.Y.I.F.Y.P.R.K.[CCC(CC)(N[*:1])C(=O)[*:2]].R.[am]}$$$$V2.0), H-MRWQEMGYEFYPRKLR-OH [compound 175] is lower in “Free Fatty Acid Levels in 3T3-L1 Adipocytes Expressed as a Percent of Isoproterenol Control: Percent of Control Value”: 92.8% for the first, 50.6% for the second.

First: Ac-MRWQEMGEIFEPRKLR-NH2 [compound 135]
Second: CC[C@H](C)[C@H](NC(=O)[C@H](Cc1ccc(O)cc1)NC(=O)CNC(=O)[C@H](CCSC)NC(=O)[C@H](CCC(=O)O)NC(=O)[C@H](CCC(N)=O)NC(=O)[C@H](Cc1c[nH]c2ccccc12)NC(=O)[C@H](CCCNC(=N)N)NC(=O)[C@H](CCSC)NC(C)=O)C(=O)N[C@@H](Cc1ccccc1)C(=O)N[C@@H](Cc1ccc(O)cc1)C(=O)N1CCC[C@H]1C(=O)N[C@@H](CCCNC(=N)N)C(=O)N[C@H](C)C(=O)N[C@@H](CC(C)C)C(=O)N[C@@H](CCCNC(=N)N)C(N)=O [compound 165] (HELM PEPTIDE1{[ac].M.R.W.Q.E.M.G.Y.I.F.Y.P.R.[dA].L.R.[am]}$$$$V2.0)
The “Free Fatty Acid Levels in 3T3-L1 Adipocytes Expressed as a Percent of Isoproterenol Control: Percent of Control Value” of the first is lower: 79.0% for the first, 82.0% for the second.

Compared with `CC[C@H](C)[C@H](NC(=O)[C@H](Cc1ccc(O)cc1)NC(=O)CNC(=O)[C@H](C)NC(=O)[C@H](CCC(=O)O)NC(=O)[C@H](CCC(N)=O)NC(=O)[C@H](Cc1c[nH]c2ccccc12)NC(=O)[C@H](CCCNC(=N)N)NC(=O)[C@@H](N)CCC(=O)O)C(=O)N[C@@H](Cc1ccccc1)C(=O)N[C@@H](Cc1ccc(O)cc1)C(=O)N1CCC[C@H]1C(=O)N[C@@H](CCCNC(=N)N)C(=O)N[C@@H](CCCCN)C(=O)N[C@@H](CC(C)C)C(=O)N[C@H](C)C(=O)O` [compound 234] (HELM PEPTIDE1{E.R.W.Q.E.A.G.Y.I.F.Y.P.R.K.L.[dA]}$$$$V2.0), `CC[C@H](C)[C@H](NC(=O)[C@H](Cc1ccc(O)cc1)NC(=O)CNC(=O)[C@H](CCSC)NC(=O)[C@H](CCC(=O)O)NC(=O)[C@H](CCC(N)=O)NC(=O)[C@@H](C)NC(=O)[C@H](CCCNC(=N)N)NC(=O)[C@H](CCSC)NC(C)=O)C(=O)N[C@@H](Cc1ccccc1)C(=O)N[C@@H](Cc1ccc(O)cc1)C(=O)N1CCC[C@H]1C(=O)N[C@@H](CCCNC(=N)N)C(=O)N[C@@H](CCCCN)C(=O)N[C@@H](CC(C)C)C(=O)N[C@@H](CCCNC(=N)N)C(N)=O` [compound 154] (HELM PEPTIDE1{[ac].M.R.[dA].Q.E.M.G.Y.I.F.Y.P.R.K.L.R.[am]}$$$$V2.0) is higher in “Free Fatty Acid Levels in 3T3-L1 Adipocytes Expressed as a Percent of Isoproterenol Control: Percent of Control Value”: 73.8% for the first, 95.7% for the second.

First: CC[C@H](C)[C@H](NC(=O)[C@H](Cc1ccc(O)cc1)NC(=O)CNC(=O)[C@H](CCSC)NC(=O)[C@H](CCC(=O)O)NC(=O)[C@H](CCC(N)=O)NC(=O)[C@H](Cc1c[nH]c2ccccc12)NC(=O)[C@H](CCCNC(=N)N)NC(=O)[C@H](CCSC)NC(C)=O)C(=O)N[C@@H](Cc1ccccc1)C(=O)N[C@@H](Cc1ccc(O)cc1)C(=O)N1CCC[C@H]1C(=O)N[C@@H](CCCNC(=N)N)C(=O)N[C@@H](CCCCN)C(=O)NC(CC)(CC)C(=O)N[C@@H](CCCNC(=N)N)C(=O)O [compound 199] (HELM PEPTIDE1{[ac].M.R.W.Q.E.M.G.Y.I.F.Y.P.R.K.[CCC(CC)(N[*:1])C(=O)[*:2]].R}$$$$V2.0)
Second: CC[C@H](C)[C@@H]1NC(=O)[C@H](Cc2ccc(O)cc2)NC(=O)CNC(=O)[C@@H](NC(=O)[C@H](CCC(=O)O)NC(=O)[C@H](CCC(N)=O)NC(=O)[C@H](Cc2c[nH]c3ccccc23)NC(=O)[C@H](CCCNC(=N)N)NC(=O)[C@@H](N)CCSC)CCC(=O)NCCCC[C@@H](C(=O)N[C@@H](CCCNC(=N)N)C(=O)N[C@@H](CCCCN)C(=O)N[C@@H](CC(C)C)C(=O)N[C@@H](CCCNC(=N)N)C(=O)O)NC(=O)[C@H](Cc2ccc(O)cc2)NC(=O)[C@H](Cc2ccccc2)NC1=O [compound 221] (HELM PEPTIDE1{M.R.W.Q.E.E.G.Y.I.F.Y.K.R.K.L.R}$PEPTIDE1,PEPTIDE1,6:R3-12:R3$$$V2.0)
The “Free Fatty Acid Levels in 3T3-L1 Adipocytes Expressed as a Percent of Isoproterenol Control: Percent of Control Value” of the first is higher: 48.0% for the first, 25.5% for the second.

Compared with Ac-MRWQEMGYIFY-NH2 [compound 63], Ac-MRWQEMGYIFYPRKLE-NH2 [compound 197] is higher in “Free Fatty Acid Levels in 3T3-L1 Adipocytes Expressed as a Percent of Isoproterenol Control: Percent of Control Value”: 70.5% for the first, 84.6% for the second.

First: CC[C@H](C)[C@H](NC(=O)[C@H](Cc1ccc(O)cc1)NC(=O)CNC(=O)[C@H](CCSC)NC(=O)[C@H](CCC(=O)O)NC(=O)[C@H](CCC(N)=O)NC(=O)[C@H](Cc1c[nH]c2ccccc12)NC(=O)[C@H](CCCNC(=N)N)NC(=O)[C@@H](N)CCSC)C(=O)N[C@@H](Cc1ccccc1)C(=O)N[C@@H](Cc1ccc(O)cc1)C(=O)N1CCC[C@H]1C(=O)N[C@@H](CCCNC(=N)N)C(=O)N[C@@H](CCCCN)C(=O)NC(CC)(CC)C(=O)N[C@@H](CCCNC(=N)N)C(N)=O [compound 200] (HELM PEPTIDE1{M.R.W.Q.E.M.G.Y.I.F.Y.P.R.K.[CCC(CC)(N[*:1])C(=O)[*:2]].R.[am]}$$$$V2.0)
Second: H-MRWQEMGYIFYPEKLR-OH [compound 179]
The “Free Fatty Acid Levels in 3T3-L1 Adipocytes Expressed as a Percent of Isoproterenol Control: Percent of Control Value” of the first is higher: 80.2% for the first, 47.2% for the second.

Going from H-MRWEEMGYIFYPRKLR-OH [compound 171] to Ac-MEWQEMGYIFYPRKLR-NH2 [compound 184], the “Free Fatty Acid Levels in 3T3-L1 Adipocytes Expressed as a Percent of Isoproterenol Control: Percent of Control Value” rises from 45.9% to 97.1%.

First: Ac-LKWQEMGYIFYPRKRL-NH2 [compound 115]
Second: Ac-MAWQEMGYIFYPRKLR-NH2 [compound 23]
The “Free Fatty Acid Levels in 3T3-L1 Adipocytes Expressed as a Percent of Isoproterenol Control: Percent of Control Value” of the first is higher: 83.4% for the first, 74.7% for the second.

In the case of H-MRWQEMGYIEYPRKLR-OH [compound 176], the “Free Fatty Acid Levels in 3T3-L1 Adipocytes Expressed as a Percent of Isoproterenol Control: Percent of Control Value” is reported as 57.0%.
